The values that follow come from PMC5770598, “Small molecules targeted to the microtubule–Hec1 interaction inhibit cancer cell growth through microtubule stabilization” (Oncogene, 2017).

The target in one assay is T1, tubulin (dimeric).
T1 construct: gene alpha-tubulin; unassembled alpha/beta-tubulin dimer, 3900 RU amine-coupled to COOH5 chip
As to the kind of experiment: SPR, steady-state Scatchard plot. It counts as binding. The following applies: tubulin dimers immobilised on COOH5 chip; pH 7.4, 10 mM Hepes, 150 mM NaCl, 2 mM MgCl2, 0.05% P20, 2% DMSO.

Assay [1] concerns the target T2, MTs (assembled microtubules).
T2 construct: gene alpha-tubulin; assembled microtubules (polymer of alpha/beta-tubulin dimers), 6050 RU amine-coupled to COOH5 chip
As to the kind of experiment: SPR, steady-state Scatchard plot. The assay is classed as binding. The conditions noted are these: microtubules immobilised on COOH5 chip; pH 7.4, 10 mM Hepes, 150 mM NaCl, 2 mM MgCl2, 0.05% P20, 2% DMSO; error printed as ±0.1.

Regarding `O=C(/C=C/c1cn(CC(O)CN2CCCCC2)c2ccccc12)c1ccc(Br)cc1` (centres unmarked) [SM15], the Kd on tubulin (dimeric) came out at 1800 ± 400 nM; in assay [1] it was 940 ± 130 nM.
